Here are results for ten compounds from US8993569B2, “Diarylpyridazinone derivatives, preparation thereof, and use thereof for the treatment of humans” (Pierre Fabre Medicament, priority 2010, dated 2015).

T1 sequence (P22460 whole entry, canonical isoform): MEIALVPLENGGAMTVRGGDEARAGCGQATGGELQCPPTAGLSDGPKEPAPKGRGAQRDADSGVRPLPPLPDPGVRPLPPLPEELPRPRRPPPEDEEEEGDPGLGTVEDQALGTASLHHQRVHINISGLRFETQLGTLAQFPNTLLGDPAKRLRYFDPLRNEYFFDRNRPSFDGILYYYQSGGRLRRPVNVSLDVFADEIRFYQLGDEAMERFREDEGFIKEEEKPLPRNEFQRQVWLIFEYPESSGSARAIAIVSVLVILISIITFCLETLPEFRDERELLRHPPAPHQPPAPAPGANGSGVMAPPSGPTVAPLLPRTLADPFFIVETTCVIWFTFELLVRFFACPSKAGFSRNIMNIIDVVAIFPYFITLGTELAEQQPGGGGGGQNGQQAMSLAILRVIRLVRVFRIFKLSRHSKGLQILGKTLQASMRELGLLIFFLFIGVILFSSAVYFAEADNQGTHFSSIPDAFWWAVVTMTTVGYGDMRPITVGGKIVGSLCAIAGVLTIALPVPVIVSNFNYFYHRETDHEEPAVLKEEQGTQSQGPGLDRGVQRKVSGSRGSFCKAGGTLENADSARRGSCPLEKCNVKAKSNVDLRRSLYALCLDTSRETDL

This experiment has as its target T1, human isoform of the Kv1.5 channels (HEK293 cells, stably transfected) (Homo sapiens, UniProt P22460).
T1 construct: expressed in transfected cells; host or cells: HEK293
The experiment can be described thus: FLIPR thallium ion flux assay on Kv1.5 potassium channel (FLIPR Potassium Ion Channel Assay Kit). In kind it is cell-based. Particulars: 10 μM compound, 15 min at 37° C; HEK293-hKv1.5; thallium fluorescence 30 secs after depolarising solution; normalised with 10 μM DPO. As to the method:
The pharmacological assessment of the compounds on the Kv1.5 potassium channel was performed in a 96-well plate in FLIPR technology by thallium ion measurement.
The HEK293 cells, stably transfected with the human isoform of the Kv1.5 channels, are seeded 24 h before experimentation in 96-well plates (15 10^6 cells/plate, 200 μl/well) polylysinated in the following culture medium: DMEM, 10% SVF, Penicillin/Streptomycin, G418 as the selection antibiotic.
The experimentation in FLIPR is performed using the “FLIPR Potassium Ion Channel Assay Kit) as indicated by the manufacturer (Molecular Devices).
Briefly, the culture medium is replaced by the solution containing the thallium marker for 90 min at 37° C. Following this step, the compounds to be tested are added to a final concentration of 10 μM in the well for 15 min at 37° C. The basic fluorescence is subsequently read for 60 secs. The addition of a depolarising medium (20 mM of potassium and 3 mM of final thallium), opens the potassium channels and induces an increase in the fluorescence of the fluorophore thallium corresponding to an influx of thallium ions through the hKv1.5 channels. The measurement is performed 30 secs after injection of the depolarising solution. Application of 10 μM of DPO (Tocris, Kv1.5 channel blocker) allows normalisation of the fluorescence.
As for `Cc1ccc(S(=O)(=O)Nc2cccc(-c3cnn(C(C)c4ccccc4)c(=O)c3-c3cccc(NS(=O)(=O)c4ccc(C)cc4)c3)c2)cc1` (stereo not shown) [Example 7, N,N′-(3,3′-(6-oxo-1-(1-phenylethyl)-1,6-dihydropyridazine-4,5-diyl)bis(3,1-phenylene))bis(4-methylbenzenesulfonamide)], the inhibition (as a rule, the share of the control response that was lost under treatment) at 10 µM was 54.9%.

Regarding `C[C@H](c1ccccc1)n1ncc(-c2ccc(O)cc2)c(-c2ccc(O)cc2)c1=O` [Example 3, 4,5-Bis-(4-hydroxy-phenyl)-2-((R)-1-phenyl-ethyl)-2H-pyridazin-3-one], testing at 10 µM gave an inhibition of 43.3%.

Compound `COc1ccc(-c2c(-c3ccccc3C#N)cnn(C(C)c3ccccc3)c2=O)cc1` (stereo not shown) [Example 9, 2-[5-(4-Methoxy-phenyl)-6-oxo-1-(1-phenyl-ethyl)-1,6-dihydro-pyridazin-4-yl]-benzonitrile] gave an inhibition at 10 µM of 60.1%.

Consider `CC1=C(C(=O)N2CCC[C@H]2c2ccc(F)cc2)[C@@H](c2ccc(Cl)c(Cl)c2)n2nccc2N1` [BMS394136, reference compound], for which the inhibition at 10 µM worked out at 99.6%.

Take `COc1ccc(-c2c(-c3cccc(C#N)c3)cnn(C(C)c3ccccc3)c2=O)cc1` (stereo not shown) [Example 8, 3-(5-(4-methoxyphenyl)-6-oxo-1-(1-phenylethyl)-1,6-dihydropyridazin-4-yl)benzonitrile]: the inhibition at 10 µM worked out at 88%.

As to `CC(c1ccccc1)n1ncc(-c2ccc(O)cc2)c(-c2ccc(O)cc2)c1=O` (stereo not shown) [Example 1, 4,5-Bis-(4-hydroxy-phenyl)-2-(1-phenyl-ethyl)-2H-pyridazin-3-one], at 10 µM the inhibition was 100%.

In the case of `CC(c1ccccc1)n1ncc(-c2ccccc2C#N)c(-c2ccccc2C#N)c1=O` (stereo not shown) [Example 4, 2,2′-(6-oxo-1-(1-phenylethyl)-1,6-dihydropyridazine-4,5-diyl)dibenzonitrile], the inhibition at 10 µM stood at 54.9%.

Compound `CC(c1ccccc1)n1ncc(-c2cccc(C#N)c2)c(-c2cccc(C#N)c2)c1=O` (stereo not shown) [Example 5, 3,3′-(6-oxo-1-(1-phenylethyl)-1,6-dihydropyridazine-4,5-diyl) dibenzonitrile] had an inhibition at 10 µM of 93.6%.

On to `C[C@@H](c1ccccc1)n1ncc(-c2ccc(O)cc2)c(-c2ccc(O)cc2)c1=O` [Example 2, 4,5-Bis-(4-hydroxy-phenyl)-2-((S)-1-phenyl-ethyl)-2H-pyridazin-3-one], for which the inhibition at 10 µM is 100%.

Compound `COc1ccc(-c2cnn(C(C)c3ccccc3)c(=O)c2-c2ccc(OC)cc2)cc1` (stereo not shown) [Example 6, 4,5-Bis-(4-methoxy-phenyl)-2-(1-phenyl-ethyl)-2H-pyridazin-3-one] returned an inhibition at 10 µM of 94.2%.
